# According to patent US12569507B2, “CAR T-cells for the treatment of bone metastatic cancer” (H. Lee Moffitt Cancer Center and Research Institute, Inc., priority 2018, dated 2026):
# Assays:
# [1] = tested on: C4-2B luciferase expressing cells; assay: Intratibial C4-2B bone metastatic CRPC model, γδ T-cells with zoledronate or vehicle; type: in vivo, NSG mice
# Text: FIGS. 7A to 7D show C4-2B cells inoculated into NSG mice and treated with either zoledronate (ZOL) or vehicle control. After establishment and randomization mice (n=15/group) were inoculated with 3.5×10^6 […]. Subsets of mice were removed from the study at 1, 3 and 5 days late. […] Number illustrate the percentage of γδ T-cells in the total marrow analysis over time. […] FIG. 7C is a graph showing RLUs quantitated over time and the growth rates calculated for each group. Asterisk indicates statistical significance. Mice at the final time point were assessed for γδ T-cell localization (CD3), apoptosis (cleaved caspase-3; CC3) and proliferation (phospho histone H3; pHH3). […] Arrows indicate positivity. DAPI was used as a nuclear counterstain.
# Next, the anti-tumor activity of γδ T-cells on established bone metastatic CRPC lesions in vivo was assessed. NSG (NOD.Cg-Prkdcscid112rgtm1Wjl/SzJ) immunocompromised mice were intratibially inoculated with C4-2B luciferase expressing cells (1×10^5) and once established were randomized in zoledronate (0.1 mg/Kg) or vehicle (saline) groups (n=25 per group) based on relative luminescence unit (RLU) measurement. One week later, mice received tail vein injections of human γδ T-cells (3.5×10^6/mouse).
# Groups of mice (n=5) were removed from the study 1, 3, 5 days subsequent to injection with tibias being flushed and assessed for human CD3 Vd2 content by flow cytometry. […] Bioluminescence was used as a correlate of tumor growth.
# [2] = tested on: PSCA-expressing C42B prostate cancer cells; assay: Interferon-γ ELISA of γδ CAR-T coculture supernatants; type: cell-based
# Text: Four variants of the anti-PSCA CAR were generated containing either CD27 (CD27z), CD28 (CD28z), or 4-1BB (BBz) costimulation. The fourth variant contains a CD27 costimulatory domain where the TRAF-binding site has been replaced with an inert flexible linker (G4S). γδ CAR-T cells expressing either CAR variant (or GFP as controls) were generated, and cocultured with PSCA-expressing C42B prostate cancer cells, in presence or absence of zoledronate, at the indicated doses. The presence of interferon-γ in the supernatants (measured by ELISA) was used as a marker of T cell activation. CAR-expressing T cells (but not untransduced or GFP-transduced cells) reacted to target cells by producing interferon-γ (solid bars).
# CRPC C4-2BPSCA cell line = assay: Cytotoxicity of γδ (CAR)-T cells with or without ZOL; type: cell-based; conditions: ZOL 0.4 μM added to γδ CAR-T
# Procedure: FIGS. 11A and 11B show zoledronate enhances γδ (CAR)-T cells cytotoxic effect.
# (§1) γδ CAR-T cells recognize tumor cells via CAR and via TCR. The CAR- and TCR-mediated mechanisms of tumor cell recognition were tested using the CRPC C4-2BPSCA cell line. Cancer cells were treated with either untransduced (UT) control or CAR-expressing γδ T-cells, in the presence or absence of ZOL (0.4 μM). In presence of ZOL, control γδ T cells induced a cytotoxic effect at approx. 18 h, reflecting recognition of C4-2B-PSCA cells via TCR. […] The ability to induce a potent cytolytic effect with lesser cytokine production that can be modulated by ZOL is important since it may allow γδ (CAR-)T-cells to mediate more precise tumor killing, reducing the risk for complications related to massive cytokine release.
# γδ (CAR)-T cells = assay: IL-2 secretion by γδ (CAR)-T cells; type: cell-based
# [3] = tested on: Parental C4-2B cells (PSCA null); assay: RTCA cytotoxicity with or without zoledronate; type: cell-based, human; conditions: γδ T-cells in combination with zoledronate
# Procedure: (§2) Summary of RTCA analysis of C4-2B-PSCA, or control PSCA null C4-2B, cells co-cultured with γδ CAR-T cells, or untransduced controls (UT). FIGS. […] show tumor cells without ZOL pretreatment. FIGS. 6C and 6D show tumor cells with 2 h ZOL pretreatment. FIGS. 6A and 6C show tumor cell viability 2 h post co-culture. FIGS. 6B and 6D show 30 h post co-culture.
# (§3) The CAR- and TCR-mediated mechanism of tumor cell recognition were tested using the CRPC C4-2B cell line.
# C4-2B-PSCA cells [4] = assay: RTCA cytotoxicity with or without zoledronate; type: cell-based, human; conditions: γδ T-cells in combination with zoledronate
# Procedure: as §2, §3
# T47D breast cancer cells = assay: IPP production in response to zoledronate, LC-MS/MS of cell extracts; type: cell-based; conditions: 1 h, high-dose zoledronate
# Procedure: (§4) Following treatment of tumor cells with ZOL, IPP was measured in cell extracts by tandem LC-MS/MS, using AppCp as an internal standard. […] ZOL treatment was administered for 1 h or 18 h, at 2 different doses: 10 μM or 25 μM.
# (§5) In order to verify that zoledronate effectively induces IPP accumulation in a model system, C4-2B-PSCA-Luc human CRPC prostate cancer cells were treated with 10 μM or 25 μM of zoledronate, for 1 h or 18 h. Intracellular IPP levels were measured using a semi-quantitative mass spectrometry assay. T47D breast cancer cells were used as positive control, and Panc02.03 pancreatic cancer cells were used as negative controls.
# [5] = tested on: Panc02.03 pancreatic cancer cells; assay: as above; type: cell-based; conditions: Panc02.03 cells, even after prolonged treatment with high doses
# Procedure: as §4, §5
# C4-2B-PSCA cells [6] = assay: IFNγ ELISA of co-culture supernatants with increasing Zol; type: cell-based
# Procedure: IFNγ ELISA of co-culture supernatants of C4-2B-PSCA cells exposed to media (negative control) or the indicated T cells, in presence of increasing concentrations of Zol (0, 0.4 and 0.8 μM).
# as §1
# [7] = tibias at study endpoint, vs control
smiles,measurement,setting,value
O=P(O)(O)C(O)(Cn1ccnc1)P(=O)(O)O [zoledronate],apoptotic (cleaved caspase-3) cancer cells,[1]; [7],increased
same,proliferative (phospho-Histone H3) cancer cells,[1]; [7],decreased
same,C4-2B growth rate (bioluminescence),"[1]; zoledronate group vs controls, with γδ T-cells",significantly slower
same,effect of zoledronate on target recognition by control γδ T cells,[2]; GFP-transduced and untransduced γδ T cells,induced target recognition by GFP-transduced and untransduced γδ T cells
same,effect of zoledronate on interferon production by CAR-T cells,"[2]; γδ CAR-T cells, coculture",enhanced interferon production by CAR-T cells
same,effect of ZOL on cytolytic activity of γδ CAR-T,CRPC C4-2BPSCA cell line,greatly enhanced
same,time to complete elimination of tumor cells,CRPC C4-2BPSCA cell line,≤ 45 h
same,IL-2 secretion by γδ (CAR)-T cells,γδ (CAR)-T cells,increases IL-2 secretion
same,"viability of tumor cells, early time point",[3],notable reduction in the viability
same,"viability of tumor cells, early time point",C4-2B-PSCA cells [4],less evident
same,Intracellular IPP levels,T47D breast cancer cells,detectable over background
same,Intracellular IPP levels,[5],did not produce IPP
same,effect of ZOL on IFNγ secretion,C4-2B-PSCA cells [6]; coculture of γδ (CAR-)T-cells with C4-2BPSCA cells,enhanced IFNγ secretion
same,effect of ZOL on IFNγ secretion,C4-2B-PSCA cells [6]; αβ T cells used,not observed
